From patent publication US20060173171A1, “Techniques and compositions for diagnosis and treatment of cancer (muci)” (priority 2003, published 2006)

Test system: ligands in breast tumor cell lysates
Assay: Ligand fishing from cell lysates with PSMGFR peptide on NTA-Ni beads, silver-stained gel
Format: binding, human
Method: In an effort to identify ligands to the MUC1 receptor, synthetic, His-var-PSMGFR peptides, […] (SEQ ID NO: 2), which is representative of the portion of the MUC1 receptor, that remains attached to the cell surface after cleavage of the interchain binding region, were loaded onto NTA-Ni beads (cat. #1000630; available from Qiagen GmbH, Germany) and incubated with cell lysates in the presence (FIG. 9) or absence (FIG. 10) of the protease inhibitor PMSF (phenyl methyl sulfonyl fluoride). Lysates from T47D cells were used because this breast tumor cell line is known to overexpress MUC1 and MUC1 ligand(s). T47D cells were cultured then sonicated for 1 minute to lyse the cells. Lysates were mixed with the PSMGFR peptide-presenting beads and incubated on ice with intermittent mixing for 1 hr. As a negative control, an irrelevant peptide, HHHHHHGEFTGTYITAVT (SEQ ID NO: 13), was attached to NTA-Ni beads and treated identically. Both sets of beads were washed 2× with phosphate buffer pH 7.4. Bound protein species were eluted by 3 additions of 100 uL of phosphate buffer that also contained 250 mM imidazole. For both the peptides, a portion of the first elution was removed and reserved to run as a separate sample, while the remainder was combined with the other 2 elutions and concentrated by TCA (tri-chloro acetic acid)-precipitation (Chen, L. et al., Anal. Biochem. Vol 269; pgs 179-188; 1999). […]

“GTINVHDVETQFNQYKTEAASPYNLTISDVSVSDVPFPFSAQSGAHHHHHH [PSMGFR peptide]” was tested, and the “protein species bound from T47D lysate” value (in the absence of PMSF, FIG. 10) was “bound distinguishably to one peptide” and the “protein species bound from T47D lysate” value (in the presence of PMSF, FIG. 9) was “bound distinguishably to three peptides”.
